Data published in article PMC6486649 (Analytica chimica acta, 2019).

What was measured:
hCMEC/D3 cells = type: in vitro ADME, human; conditions: either individually or in combination, p<0.05, two-way ANOVA
[1] = cited from earlier work

What does the source list for `C[C@@H]1CCO[C@H]2Cn3cc(C(=O)NCc4ccc(F)cc4F)c(=O)c(O)c3C(=O)N12` [Dolutegravir]?
Intracellular accumulation compared with tenofovir or emtricitabine (hCMEC/D3 cells): significantly higher; LogP [1]: 1.10
